# Test system: yeast genes (level of expressed mRNA)
# Experiment: DNA chip analysis of expressed mRNA of yeast genes after 2 h culture with a toxic chemical substance
# Format: cell-based, Saccharomyces cerevisiae S288C
# Description: Yeast (Saccharomyces cerevtisiae S288C (α SUC2mal mel gap2 CUP1)) were cultured at 25° C. on YPD medium (yeast extract 1%, polypepton 2%, glucose 2%). One of toxic chemical substances was added to the cell at logarithmic growth phase, and the cell was further cultured for two hours. Cell was cultured without any chemical substance in the same condition, and was used as control. Concentrations of the chemical substances were defined to inhibit the growth of the yeast but not lead to death.
# After the completion of cultivation, the culture was centrifuged to collect the cells. To the cells, sodium acetate buffer (50 mM sodium acetate, 10 mM EDTA, 1% SDS) was added, and the mixture was shaken at 65° C. for five minutes, followed by returning to room temperature, and obtaining the supernatant, which procedure was repeated two times. To the supernatant, ½ amount of a solution of phenol/chloroform was added, and the mixture was centrifuged to give a supernatant, which was added with an equal amount of chloroform, and the mixture was centrifuged to give a supernatant. To the supernatant, an equal amount of isopropanol containing 0.3 M sodium acetate was added, and the mixture was allowed to stand at room temperature for 30 minutes, after which the mixture was centrifuged to give a sediment of the whole RNAs. Seventy % ethanol was added to the sediment, and the mixture was again centrifuged to give a sediment, which was then dried and dissolved in water. mRNA was isolated from the whole RNAs as followings. In view of the fact that a poly A chain is attached to the 3′ terminus of mRNA, a polynucleotide having a poly T structure which was immobilized on the surface of latex beads was used to trap the mRNA, and then the mRNA was washed and eluted with spine column (Oligotex-dT30<Super>mRNA Purification Kit, Takara). Reverse transcription of the mRNA was conducted with a reverse transcriptase (Super Script II Reverse Transcriptase; catalogue No. 18064-014, GibcoBRL) using fluorescence-labeled nucleotides to give cDNAs that were introduced with Cy3-dUTP or Cy5-dUTP during the reverse transcription.
# The labeled cDNAs were dissolved in TE buffer (10 mM Tris-HCl/1 mM EDTA, pH8.0), and the solution was dropped on the DNA chip containing the whole genes of yeast (DNA Chip Research Inc. Japan) so that the cDNAs were hybridized on the DNA chip at 65° C. for over 12 hours. The fluoresces intensity of the DNA chip was read with a scanner, and the ratio relative to the fluorescence intensity resulting from the absence of chemical substance was estimated as the following, which is shown in Tables 1 to 9: [formula]
# In the Tables, “Intensity” indicated in the rightmost column is a value of the level of expressed mRNA of each gene in control cells as divided by the average level of the expressions of the whole genes.
smiles,measurement,setting,value
"Oc1cc(Cl)c(Cl)cc1Cl [(6), 2,4,5-trichlorophenol]",The level of expressed mRNA in the presence of chemical substance/The level of expressed mRNA in the absence of chemical substance,yeast gene YKL013C,1.9
same,The level of expressed mRNA in the presence of chemical substance/The level of expressed mRNA in the absence of chemical substance,yeast gene YKL039W,4.9
same,The level of expressed mRNA in the presence of chemical substance/The level of expressed mRNA in the absence of chemical substance,yeast gene YKL041W,2.2
same,The level of expressed mRNA in the presence of chemical substance/The level of expressed mRNA in the absence of chemical substance,yeast gene YKL096W,0.6
same,The level of expressed mRNA in the presence of chemical substance/The level of expressed mRNA in the absence of chemical substance,yeast gene YKL165C,0.6
same,The level of expressed mRNA in the presence of chemical substance/The level of expressed mRNA in the absence of chemical substance,yeast gene YKL193C,0.9
same,The level of expressed mRNA in the presence of chemical substance/The level of expressed mRNA in the absence of chemical substance,yeast gene YLR120C,1.9
same,The level of expressed mRNA in the presence of chemical substance/The level of expressed mRNA in the absence of chemical substance,yeast gene YLR136C,1.7
same,The level of expressed mRNA in the presence of chemical substance/The level of expressed mRNA in the absence of chemical substance,yeast gene YLR178C,4.2
same,The level of expressed mRNA in the presence of chemical substance/The level of expressed mRNA in the absence of chemical substance,yeast gene YLR250W,1.1
same,The level of expressed mRNA in the presence of chemical substance/The level of expressed mRNA in the absence of chemical substance,yeast gene YLR327C,5.1
same,The level of expressed mRNA in the presence of chemical substance/The level of expressed mRNA in the absence of chemical substance,yeast gene YLR356W,3.4
same,The level of expressed mRNA in the presence of chemical substance/The level of expressed mRNA in the absence of chemical substance,yeast gene YLR362W,0.8
same,The level of expressed mRNA in the presence of chemical substance/The level of expressed mRNA in the absence of chemical substance,yeast gene YLR391W,1.5
same,The level of expressed mRNA in the presence of chemical substance/The level of expressed mRNA in the absence of chemical substance,yeast gene YLR429W,0.8
same,The level of expressed mRNA in the presence of chemical substance/The level of expressed mRNA in the absence of chemical substance,yeast gene YMR004W,0.5
same,The level of expressed mRNA in the presence of chemical substance/The level of expressed mRNA in the absence of chemical substance,yeast gene YMR094W,0.5
same,The level of expressed mRNA in the presence of chemical substance/The level of expressed mRNA in the absence of chemical substance,yeast gene YMR104C,1.9
same,The level of expressed mRNA in the presence of chemical substance/The level of expressed mRNA in the absence of chemical substance,yeast gene YMR219W,0.8
same,The level of expressed mRNA in the presence of chemical substance/The level of expressed mRNA in the absence of chemical substance,yeast gene YMR226C,2.6
same,The level of expressed mRNA in the presence of chemical substance/The level of expressed mRNA in the absence of chemical substance,yeast gene YMR275C,1.4
same,The level of expressed mRNA in the presence of chemical substance/The level of expressed mRNA in the absence of chemical substance,yeast gene YMR276W,0.8
same,The level of expressed mRNA in the presence of chemical substance/The level of expressed mRNA in the absence of chemical substance,yeast gene YMR314W,1.3
same,The level of expressed mRNA in the presence of chemical substance/The level of expressed mRNA in the absence of chemical substance,yeast gene YNL006W,1.0
same,The level of expressed mRNA in the presence of chemical substance/The level of expressed mRNA in the absence of chemical substance,yeast gene YNL007C,0.6
same,The level of expressed mRNA in the presence of chemical substance/The level of expressed mRNA in the absence of chemical substance,yeast gene YNL093W,1.6
same,The level of expressed mRNA in the presence of chemical substance/The level of expressed mRNA in the absence of chemical substance,yeast gene YNL333W,1.5
same,The level of expressed mRNA in the presence of chemical substance/The level of expressed mRNA in the absence of chemical substance,yeast gene YNR010W,1.3
same,The level of expressed mRNA in the presence of chemical substance/The level of expressed mRNA in the absence of chemical substance,yeast gene YNR069C,1.7
same,The level of expressed mRNA in the presence of chemical substance/The level of expressed mRNA in the absence of chemical substance,yeast gene YOL013C,1.1
same,The level of expressed mRNA in the presence of chemical substance/The level of expressed mRNA in the absence of chemical substance,yeast gene YOL164W,1.2
same,The level of expressed mRNA in the presence of chemical substance/The level of expressed mRNA in the absence of chemical substance,yeast gene YOR036W,1.7
same,The level of expressed mRNA in the presence of chemical substance/The level of expressed mRNA in the absence of chemical substance,yeast gene YOR117W,1.1
same,The level of expressed mRNA in the presence of chemical substance/The level of expressed mRNA in the absence of chemical substance,yeast gene YOR124C,0.9
same,The level of expressed mRNA in the presence of chemical substance/The level of expressed mRNA in the absence of chemical substance,yeast gene YOR132W,1.6
same,The level of expressed mRNA in the presence of chemical substance/The level of expressed mRNA in the absence of chemical substance,yeast gene YOR157C,1.2
same,The level of expressed mRNA in the presence of chemical substance/The level of expressed mRNA in the absence of chemical substance,yeast gene YOR181W,0.9
same,The level of expressed mRNA in the presence of chemical substance/The level of expressed mRNA in the absence of chemical substance,yeast gene YOR185C,3.0
same,The level of expressed mRNA in the presence of chemical substance/The level of expressed mRNA in the absence of chemical substance,yeast gene YOR198C,0.9
same,The level of expressed mRNA in the presence of chemical substance/The level of expressed mRNA in the absence of chemical substance,yeast gene YOR259C,0.8
same,The level of expressed mRNA in the presence of chemical substance/The level of expressed mRNA in the absence of chemical substance,yeast gene YOR261C,1.4
same,The level of expressed mRNA in the presence of chemical substance/The level of expressed mRNA in the absence of chemical substance,yeast gene YOR288C,1.0
same,The level of expressed mRNA in the presence of chemical substance/The level of expressed mRNA in the absence of chemical substance,yeast gene YOR355W,1.6
same,The level of expressed mRNA in the presence of chemical substance/The level of expressed mRNA in the absence of chemical substance,yeast gene YOR383C,6.8
same,The level of expressed mRNA in the presence of chemical substance/The level of expressed mRNA in the absence of chemical substance,yeast gene YPL089C,0.8
same,The level of expressed mRNA in the presence of chemical substance/The level of expressed mRNA in the absence of chemical substance,yeast gene YPL109C,1.2
same,The level of expressed mRNA in the presence of chemical substance/The level of expressed mRNA in the absence of chemical substance,yeast gene YPL149W,0.9
same,The level of expressed mRNA in the presence of chemical substance/The level of expressed mRNA in the absence of chemical substance,yeast gene YPL154C,3.5
same,The level of expressed mRNA in the presence of chemical substance/The level of expressed mRNA in the absence of chemical substance,yeast gene YPR103W,1.2
same,The level of expressed mRNA in the presence of chemical substance/The level of expressed mRNA in the absence of chemical substance,yeast gene YPR108W,1.5
